From patent US20260028365A1 (BIOGEN MA INC., priority 2022, published 2026)
Where two headings read alike, the source gives them in different places.

Target: Tyk2 (Homo sapiens (Human), UniProt P29597)
Experiment: pSTAT4 Cell Assay (MSD, NK92 cells)
Assay type: cell-based
Description: The inhibitory potency of compounds of the disclosure against the Tyk2 kinase activity on STAT4 was evaluated using an MSD-platform plate-based assay format. NK92 cells natively expressing STAT4 and Tyk2 were serum-starved to reduce background phosphorylation levels, then cells were treated compounds for 1 hr with a 10-point four-fold dilution series starting at 10 μM. Cells were then stimulated with 30 ng/mL […] for 15 minutes. […] The data were normalized and the percent activity versus log concentration of compound were fitted with a 4-parameter logistic model to generate to generate IC50 curves.

Chain of Tyk2 (P29597 whole entry): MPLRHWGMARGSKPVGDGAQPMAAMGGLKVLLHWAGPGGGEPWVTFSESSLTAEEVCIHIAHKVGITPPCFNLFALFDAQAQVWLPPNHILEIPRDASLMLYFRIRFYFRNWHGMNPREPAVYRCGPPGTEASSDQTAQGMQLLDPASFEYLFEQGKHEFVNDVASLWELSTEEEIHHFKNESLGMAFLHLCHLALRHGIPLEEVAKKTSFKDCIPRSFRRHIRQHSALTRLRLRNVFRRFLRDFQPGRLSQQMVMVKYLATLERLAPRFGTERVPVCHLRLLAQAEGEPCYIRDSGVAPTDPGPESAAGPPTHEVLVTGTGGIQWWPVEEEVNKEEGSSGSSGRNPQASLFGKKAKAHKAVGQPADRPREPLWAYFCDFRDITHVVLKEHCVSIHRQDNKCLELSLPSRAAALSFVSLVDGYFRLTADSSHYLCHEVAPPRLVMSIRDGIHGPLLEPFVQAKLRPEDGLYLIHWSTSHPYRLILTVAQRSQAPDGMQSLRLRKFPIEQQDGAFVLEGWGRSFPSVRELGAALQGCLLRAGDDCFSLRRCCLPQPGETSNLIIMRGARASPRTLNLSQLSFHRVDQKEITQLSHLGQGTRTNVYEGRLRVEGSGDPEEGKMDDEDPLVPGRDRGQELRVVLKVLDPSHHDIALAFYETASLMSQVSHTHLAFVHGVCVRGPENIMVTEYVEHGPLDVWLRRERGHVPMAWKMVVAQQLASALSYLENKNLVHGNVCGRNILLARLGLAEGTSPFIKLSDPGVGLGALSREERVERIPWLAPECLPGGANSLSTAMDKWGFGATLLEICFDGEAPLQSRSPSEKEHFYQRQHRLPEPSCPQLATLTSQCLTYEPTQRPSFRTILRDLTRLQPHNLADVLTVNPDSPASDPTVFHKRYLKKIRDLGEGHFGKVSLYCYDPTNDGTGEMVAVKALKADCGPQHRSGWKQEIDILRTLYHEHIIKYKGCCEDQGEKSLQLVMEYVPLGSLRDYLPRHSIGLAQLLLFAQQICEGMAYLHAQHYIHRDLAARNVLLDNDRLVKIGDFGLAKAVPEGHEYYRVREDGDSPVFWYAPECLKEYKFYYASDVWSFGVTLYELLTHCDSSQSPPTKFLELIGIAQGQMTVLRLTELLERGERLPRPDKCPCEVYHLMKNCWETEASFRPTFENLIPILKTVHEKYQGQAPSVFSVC

| SMILES | IC50 (MSD) [nM] | IC50 [nM] |
| --- | --- | --- |
| COC(C)CCOc1cnc(NC(C)=O)cc1Nc1cc(C)nc(C(C)(F)F)n1 (centres unmarked) [Example 137, N-(4-((2-(1,1-difluoroethyl)-6-methylpyrimidin-4-yl)amino)-5-(3-methoxybutoxy)pyridin-2-yl)acetamide] | 10 to 100 |  |
| COCCOc1cnc(NC(C)=O)cc1Nc1cccc(C(F)CF)n1 (centres unmarked) [Example 73, N-(4-((6-(1,2-difluoroethyl)pyridin-2-yl)amino)-5-(2-methoxyethoxy)pyridin-2-yl)acetamide] | 10 to 100 |  |
| CC(=O)Nc1cc(Nc2cc(C)nc(C(C)(F)F)n2)c(OC[C@@H]2COC(C)(C)O2)cn1 [Example 110, (R)-N-(4-((2-(1,1-difluoroethyl)-6-methylpyrimidin-4-yl)amino)-5-((2,2-dimethyl-1,3-dioxolan-4-yl)methoxy)pyridin-2-yl)acetamide] | 10 to 100 |  |
| CNC(=O)COc1cnc(NC(C)=O)cc1Nc1cc(C)nc(C(C)(F)F)n1 [Example 102, 2-((6-acetamido-4-((2-(1,1-difluoroethyl)-6-methylpyrimidin-4-yl)amino)pyridin-3-yl)oxy)-N-methylacetamide] | 10 to 100 |  |
| CC(=O)Nc1cc(Nc2cc(C)nc(C(C)(F)F)n2)c(OCc2nccs2)cn1 [Example 108, N-(4-((2-(1,1-difluoroethyl)-6-methylpyrimidin-4-yl)amino)-5-(thiazol-2-ylmethoxy)pyridin-2-yl)acetamide] | 10 to 100 |  |
| CC(=O)Nc1cc(Nc2cc(C)nc(C(C)(F)F)n2)c(OCc2cc(C)ccn2)cn1 [Example 133, N-(4-((2-(1,1-difluoroethyl)-6-methylpyrimidin-4-yl)amino)-5-((4-methylpyridin-2-yl)methoxy)pyridin-2-yl)acetamide] | ≤ 10 |  |
| CC(=O)Nc1cc(Nc2cc(C)nc(C(C)(F)F)n2)c(OCc2cc(C#N)ccn2)cn1 [Example 129, N-(5-((4-cyanopyridin-2-yl)methoxy)-4-((2-(1,1-difluoroethyl)-6-methylpyrimidin-4-yl)amino)pyridin-2-yl)acetamide] | 10 to 100 |  |
| COCCOc1cc(Nc2cc(NC(C)=O)ncc2-c2ccn(C)n2)nc(C(C)(F)F)n1 [Example 207, N-(4-((2-(1,1-difluoroethyl)-6-(2-methoxyethoxy)pyrimidin-4-yl)amino)-5-(1-methyl-1H-pyrazol-3-yl)pyridin-2-yl)acetamide] | ≤ 10 |  |
| CC(=O)Nc1cc(Nc2cc(C)nc(C(C)(F)F)n2)c(OCc2cc(C)sn2)cn1 [Example 115, N-(4-((2-(1,1-difluoroethyl)-6-methylpyrimidin-4-yl)amino)-5-((5-methylisothiazol-3-yl)methoxy)pyridin-2-yl)acetamide] | ≤ 10 |  |
| CC(=O)Nc1cc(Nc2ccnc(C(C)(F)F)n2)c(-c2cnc(OC(F)F)cn2)cn1 [Example 854, N-(4-((2-(1,1-difluoroethyl)pyrimidin-4-yl)amino)-5-(5-(difluoromethoxy)pyrazin-2-yl)pyridin-2-yl)acetamide] |  | 10 to 100 |
| CC(=O)Nc1cc(Nc2cc(C)nc(C(C)(F)F)n2)c(OCc2nnc(C)s2)cn1 [Example 118, N-(4-((2-(1,1-difluoroethyl)-6-methylpyrimidin-4-yl)amino)-5-((5-methyl-1,3,4-thiadiazol-2-yl)methoxy)pyridin-2-yl)acetamide] | 10 to 100 |  |

Next, values leading:

| IC50 (MSD) [nM] | IC50 [nM] | SMILES |
| --- | --- | --- |
| ≤ 10 |  | CC(=O)Nc1cc(Nc2cc(C)nc(C(C)(F)F)n2)c(-c2nc3c(s2)CN(C)C3)cn1 [Example 684, N-(4-((2-(1,1-difluoroethyl)-6-methylpyrimidin-4-yl)amino)-5-(5-methyl-5,6-dihydrO4H-pyrrolo[3,4-d]thiazol-2-yl)pyridin-2-yl)acetamide] |
|  | ≤ 10 | CCc1cc(Nc2cc(NC(C)=O)ncc2-c2ccc(F)c(CN3C[C@@H]4C[C@H]3CO4)n2)nc(C(C)(F)F)n1 [Example 906, N-(6-(((1S,4S)-2-oxa-5-azabicyclo[2.2.1]heptan-5-yl)methyl)-4′-((2-(1,1-difluoroethyl)-6-ethylpyrimidin-4-yl)amino)-5-fluoro-[2,3′-bipyridin]-6′-yl)acetamide] |
| ≥ 1000 |  | COc1ccnc(-c2cnc(NC(C)=O)cc2Nc2cc(C)nc(C(C)(F)F)n2)n1 [Example 658, N-(4-((2-(1,1-difluoroethyl)-6-methylpyrimidin-4-yl)amino)-5-(4-methoxypyrimidin-2-yl)pyridin-2-yl)acetamide] |
| ≤ 10 |  | CC(=O)Nc1cc(Nc2cc(C)nc(C(C)(F)F)n2)c(-c2cc3n(n2)CCN(C)C3C)cn1 (centres unmarked) [Example 683, N-(4-((2-(1,1-difluoroethyl)-6-methylpyrimidin-4-yl)amino)-5-(4,5-dimethyl-4,5,6,7-tetrahydropyrazolo[1,5-a]pyrazin-2-yl)pyridin-2-yl)acetamide] |
|  | ≤ 10 | CC(=O)Nc1cc(Nc2ccnc(C(C)(F)F)n2)c(-c2csc(CC#N)n2)cn1 [Example 922, N-(5-(2-(cyanomethyl)thiazol-4-yl)-4-((2-(1,1-difluoroethyl)pyrimidin-4-yl)amino)pyridin-2-yl)acetamide] |
| 10 to 100 |  | COc1cnc(NC(C)=O)cc1Nc1cc(-c2cc(F)c3nn(C)cc3c2)nc(C(C)(F)F)n1 [Example 396, N-(4-((2-(1,1-difluoroethyl)-6-(7-fluoro-2-methyl-2H-indazol-5-yl)pyrimidin-4-yl)amino)-5-methoxypyridin-2-yl)acetamide] |
|  | ≤ 10 | CCc1cc(Nc2cc(NC(C)=O)ncc2-c2ccc(F)c(CN3CCOCC3)n2)nc(C(C)(F)F)n1 [Example 910, N-(4′-((2-(1,1-difluoroethyl)-6-ethylpyrimidin-4-yl)amino)-5-fluoro-6-(morpholinomethyl)-[2,3′-bipyridin]-6′-yl)acetamide] |
| ≤ 10 |  | CC(=O)Nc1cc(Nc2cc(C)nc(C(C)(F)F)n2)c(C2=NC3C(=O)OCC3C=N2)cn1 (centres unmarked) [Example 682, N-(4-((2-(1,1-difluoroethyl)-6-methylpyrimidin-4-yl)amino)-5-(7-oxO4a,5,7,7a-tetrahydrofuro[3,4-d]pyrimidin-2-yl)pyridin-2-yl)acetamide] |
|  | 100 to 1000 | CCc1cc(Nc2cc(NC(C)=O)ncc2-c2ccnc(CN3CCOCC3)n2)nc(C(C)(F)F)n1 [Example 909, N-(4-((2-(1,1-difluoroethyl)-6-ethylpyrimidin-4-yl)amino)-5-(2-(morpholinomethyl)pyrimidin-4-yl)pyridin-2-yl)acetamide] |
|  | 10 to 100 | CC(=O)Nc1cc(Nc2cc(C)nc(C(C)(F)F)n2)c(-c2ccn(C(F)F)n2)cn1 [Example 811, N-(4-((2-(1,1-difluoroethyl)-6-methylpyrimidin-4-yl)amino)-5-(1-(difluoromethyl)-1H-pyrazol-3-yl)pyridin-2-yl)acetamide] |
|  | ≤ 10 | CCc1cc(Nc2cc(NC(C)=O)ncc2-c2ncc(CN3CCCC3)cc2F)nc(C(C)(F)F)n1 [Example 904, N-(4′-((2-(1,1-difluoroethyl)-6-ethylpyrimidin-4-yl)amino)-3-fluoro-5-(pyrrolidin-1-ylmethyl)-[2,3′-bipyridin]-6′-yl)acetamide] |
| 10 to 100 |  | COCCc1cncc(-c2cnc(NC(C)=O)cc2Nc2cc(C)nc(C(C)(F)F)n2)n1 [Example 664, N-(4-((2-(1,1-difluoroethyl)-6-methylpyrimidin-4-yl)amino)-5-(6-(2-methoxyethyl)pyrazin-2-yl)pyridin-2-yl)acetamide] |
